Source: patent publication US7153826B2, “Treatment of rosacea” (Seatek Marine Biotechnology, Inc., priority 2000, dated 2006)
[ ]: non-standard residue; d: D form. Orn = NCCC[C@H](N)C(=O)O

What was measured:
rosacea [1] = experiment: Topical treatment of a human subject with moderately severe rosacea and pustular lesions (Example 1); format: in vivo
Procedure: The effectiveness of a cyclic decapeptide antibiotic for treating rosacea was determined on a human subject afflicted, for two years duration, with moderately severe rosacea and pustular lesions. […] The subject received topical metronidazole in a carbomer gel composition (Metrogel™) applied in the morning. Topical loloatin B (which was obtained by fermentation of the Bacillus deposited as ATCC 55797 generally following the methods described in WO98/04584) was applied in the evening. The loloatin was first dissolved in a minimal amount of alcohol which was then mixed with Lubriderm™ lotion to provide 1% w/v formulation.

rosacea [2] = conditions: metronidazole administered topically twice daily; cited from earlier work
rosacea [3] = experiment: Topical treatment of a subject afflicted with rosacea, two-year trial period (Example 2); format: in vivo, human
Description: A subject afflicted with rosacea received topical Metrogel™ overlayed with Lubriderm™ lotion in the morning and 1% loloatin B formulated in Lubriderm™ (as described above) in the evening. […] With this combined treatment, the rosacea was controlled such that only a few lesions were present at any given time, and complete remissions of several days duration became common.

Cc1ncc([N+](=O)[O-])n1CCO [metronidazole, reference compound]
benefit of previous treatments (rosacea [1]; previous treatments with metronidazole, same subject): without benefit | patients who do not benefit from treatment (rosacea [2]): about 50%

cyclo[L-Val-L-Orn-L-Leu-D-Tyr-L-Pro-L-Phe-D-Phe-L-Asn-L-Asp-L-Trp] (cyclo(V[Orn]L[dY]PF[dF]NDW); SMILES CC(C)C[C@@H]1NC(=O)[C@H](CCCN)NC(=O)[C@H](C(C)C)NC(=O)[C@H](Cc2c[nH]c3ccccc23)NC(=O)[C@H](CC(=O)O)NC(=O)[C@H](CC(N)=O)NC(=O)[C@@H](Cc2ccccc2)NC(=O)[C@H](Cc2ccccc2)NC(=O)[C@@H]2CCCN2C(=O)[C@@H](Cc2ccc(O)cc2)NC1=O) [loloatin B]
improvement in the rosacea on reinstituting the regimen (rosacea [1]; each time once daily Metrogel and once daily loloatin was reinstituted): significant improvement | improvement in the rosacea (rosacea [1]; topical Metrogel in the morning plus 1% w/v loloatin B in Lubriderm lotion in the evening, after one month): Significant improvement | control of the condition (rosacea [3]; combined Metrogel morning / 1% loloatin B evening, throughout the trial period (two years)): effectively controlled | healing time of the lesions (rosacea [3]; combined treatment Metrogel morning / 1% loloatin B evening): 2 to 3 days | course of the rosacea (rosacea [3]; topical Metrogel overlayed with Lubriderm in the morning plus 1% loloatin B in Lubriderm in the evening): Progressive improvement
